Measurements as given in patent publication US9023853B2, “Janus kinase 2 (JAK2) inhibitor for the treatment of lupus” (Cephalon, Inc., priority 2010, dated 2015).
“And” between values parts separate entries of the source, which are not always exact repeats. Equal entries are not always repeated. “Also recorded” adds a separate entry of the source.

Legend:
Assay type in all cases: in vivo, mouse
anti-dsDNA antibodies = assay: Serum anti-dsDNA ANA ELISA in NZM mice; conditions: for A: Anti-dsDNA IgG, MEAN: NZM group mean; for A: Anti-dsDNA IgG: NZM individual mouse; for serum anti-dsDNA ANAs decrease compared to vehicle: NZM mice, over course of disease
From the text: The measurement of anti-dsDNA and anti-Smith antigen antibodies was done by an in-house generated custom ELISA assay. Chromatin coated plates were purchased from Inova Diagnostics, Inc. Purified bovine thymus dsDNA (Sigma, St. Louis, […].) or purified bovine Smith antigen (GenWay, San Diego, Calif.) were used as coating antigen for the detection of anti-dsDNA and anti-Smith Ag antibodies respectively. Coated plates were washed with Borate Sulfate Saline (BSS) and blocked with BSS containing 1% Bovine Serum Albumin (BSA) and 0.1% Tween-20 detergent. Standard curves were generated using mouse anti-chromatin antibody (Sigma, 2B1) or 25 week old MRL/lpr serum. Mouse anti-dsDNA antibody (Abcam, Cambridge, Mass.), or mouse anti-Smith antigen antibody (Abcam) were used as standards for each assay. Secondary antibody was purchased from Abcam (goat anti-mouse pAb-HRP), the substrate was purchased from Rockland (Gilbertsville, Pa.) (TMB), and stop reaction buffer was generated using 1 mL of concentrated sulfuric acid into 20 mL of dH2O. Developed plates were read using a Victor-X4 spectrophotometer reading at […] with a reference wavelength of 570 nm. For all ANA ELISA assays, values below the limit of detection set by the lowest point along the standard or set by the manufacturer were considered out of range and were not estimated, but assumed the lowest point along the standard curve for that particular assay.
(§1) Age mated, female, NZM or NZW/LacJ, mice were matured for the study of lupus nephritis for a total of 7 months or 210 days at which time urine was collected for proteinuria detection. Mice with 0.5-1.0 mg/ml of urine protein as determined by an optical density-based total protein precipitation assay and cross-checked for 30-300 mg/dl of protein as determined by a stick assay were considered proteinuria positive and selected for study entry. Groups were normalized to contain a Gaussian distribution of proteinuria positive animals (i.e., ⅓ low proteinuria, ⅓ medium, ⅓ high) then randomized between groups before ear marking and taking baseline measures including urine and serum collections. A total of five mice from the total population were randomly selected for baseline kidney histology evaluation. Treatments and tests for each group are as described in FIG. 12. Briefly, with a minimum of 10 mice per group, COMPOUND A was administered at 100 mg/kg or 55 mg/kg, both twice a day and orally. […] Vehicle included 3% DMSO, 10% Solutol and 87% PBS. […] End-stage lupus nephritis was evaluated by histopathology and scored by a board certified pathologist for the assessment of total renal damage in diseased animals using the scoring method described by Smith et al (Smith, Dong et al. 2007). […] Day-98 or “end of treatment/study” represents 310 days of age for the NZM animals.

NZM mice [1] = assay: Survival in NZM lupus model; conditions: for Age (d), MEAN: NZM group mean; for Age: NZM individual mouse (survival; EOS = 310 days of age); for survival at EOS: NZM mice
Experimental: Six week old lupus-prone, female, MRL/lpr (Jackson Labs, #000485) and non-lupus prone control MRL/MpJ (Jackson Labs, #000486) mice were obtained from Jackson Laboratories (Bar Harbor, Me.) at 6-weeks of age. Spontaneous SLE-prone NZBWF1/J (NZM) (catalog no. 100008) female mice and non-lupus prone (within time from of experiment) NZW/LacJ (catalog no. 001058) female mice were obtained from Jackson Laboratories (Bar Harbor, Me.) at 15-weeks of age. All mice were maintained on a […] light/dark cycle, with food and water available ad libitum. All experimental animal procedures were approved by and in accordance to the regulations of the Institutional Animal Care and Use Committee (IACUC) of Cephalon, Inc; approved IACUC protocol #03-040 and #03-03-041.
The NZM strain acts as a mouse model of genetically-driven, progressive, systemic lupus erythematosus (SLE). The evolution of the disease in NZM mice is characterized by an abnormal polyclonal B cell activation with a high production of various autoantibodies, including those directed against DNA and other nuclear antigens, and against cytoskeleton proteins. Elevated circulating immune complexes can lead to fatal glomerulonephritis in older mice.
as §1

NZM mice [2] = assay: Renal histopathology kidney IC-GN scoring in NZM mice; conditions: for D: Glomerular Sclerosis / E: Interstitial Infiltration / G: Interstitial Fibrosis / B: Glomerular Cellularity / C: Glomerular Necrosis / F: Tubular Atrophy / H: Vasculitis: NZM individual mouse; for Glomerular Cellularity / Glomerular Necrosis / Glomerulosclerosis / Interstitial Fibrosis / Interstitial Infiltration / Tubular Atrophy / Vasculitis: NZM kidney score (grade 0-5), mean; for glomerular cellularity decrease compared to vehicle: p<0.001
Experimental: For histological analyses, the left kidney and lung (NZM model only) from each animal was removed and fixed in 10% buffered neutral 10% formalin (EMD) for 48 hours on an orbital rocker at 25° C., then washed overnight with running dH2O and stored in 70% ethanol at 4° C. until ready to be processed. Kidney stains used for histological analyses included hematoxylin and eosin (H&E), Periodic Acid Schiff (PAS) and Trichrome stains (Wistar Institute, Philadelphia, Pa.). All 3 stained sections were used by the pathologist for scoring purposes. All histological scoring was performed blinded and by an independent board certified veterinary medical pathologist (Julie Engiles, VMD, DACVP; University of Pennsylvania). Multiple stains were used to determine score values. Images in FIGS. 8, 19 and 20 show worst affected area of section selected blindly by the pathologist.
Kidney IC-GN Scoring Method (Smith, Dong et al. 2007):
1. […]
2. […]
3. […]
4. […]
5. […]
6. […]
7. […]
Also considered effacement of the glomerular tuft by PAS positive, Trichrome negative material necrosis. • Glomerular sclerosis was defined by increased fibroplasia or fibrosis within the glomerular tuft or capsule. […] Pharmacodynamic (PD) Analysis
as §1

[3] = NZM mice, sentence names 55 mg/kg and 100 mg/kg doses, p<0.05

## CN1CCN(c2cccc(Nc3nc4c(-c5ccc(S(C)(=O)=O)cc5)cccn4n3)c2)CC1 [COMPOUND A, [8-(4-methanesulfonyl-phenyl)-[1,2,4]triazolo[1,5-a]pyridin-2-yl]-[3-(4-methyl-piperazin-1-yl)-phenyl]-amine]
anti-dsDNA antibodies; CMPD A 55 mpk bid
  A: Anti-dsDNA IgG, MEAN: 16.4
anti-dsDNA antibodies; CMPD A 100 mpk bid
  A: Anti-dsDNA IgG, MEAN: 14.4
anti-dsDNA antibodies; CMPD A 55 mpk bid, 55 mg/kg
  A: Anti-dsDNA IgG: 20.6 and 39.4 and 9.4 and 12.6 and 12.7 and 7.5 and 15.2 and 16.7 and 19.3 and 10.8
anti-dsDNA antibodies; CMPD A 100 mpk bid, 100 mg/kg
  A: Anti-dsDNA IgG: 13.4 and 18.2 and 9.6 and 13.8 and 11.5 and 6.6 and 20.5 and 5.1 and 26.5 and 19.2
anti-dsDNA antibodies; COMPOUND A 55 mg/kg
  serum anti-dsDNA ANAs decrease compared to vehicle: 67.0%
anti-dsDNA antibodies; COMPOUND A 100 mg/kg
  serum anti-dsDNA ANAs decrease compared to vehicle: 73.9%
NZM mice [1]; CMPD A 55 mpk bid
  Age (d), MEAN: 300.2 days
NZM mice [1]; CMPD A 100 mpk bid
  Age (d), MEAN: 291.8 days
NZM mice [1]; CMPD A 55 mpk bid, 55 mg/kg
  Age: 310 d (9×) and 212 d
NZM mice [1]; CMPD A 100 mpk bid, 100 mg/kg
  Age: 310 d (7×) and 268 d (2×) and 212 d
NZM mice [1]; COMPOUND A 55 mg/kg orally twice a day
  survival at EOS: 90%
NZM mice [1]; COMPOUND A 100 mg/kg orally twice a day
  survival at EOS: 70%
NZM mice [2]; CMPD A 55 mpk bid
  D: Glomerular Sclerosis: − (‘−’ no disease (1))
  E: Interstitial Infiltration: − (‘−’ no disease (1))
  G: Interstitial Fibrosis: − (‘−’ no disease (1))
NZM mice [2]; CMPD A 55 mpk bid, 55 mg/kg
  B: Glomerular Cellularity: + (‘+’ mild (2)); also recorded: − (‘−’ no disease (1))
  C: Glomerular Necrosis: − (‘−’ no disease (1)); also recorded: + (‘+’ mild (2))
  F: Tubular Atrophy: + (‘+’ mild (2)); also recorded: − (‘−’ no disease (1))
  H: Vasculitis: − (‘−’ no disease (1)); also recorded: + (‘+’ mild (2))
NZM mice [2]; CMPD A 100 mpk bid, 100 mg/kg
  B: Glomerular Cellularity: − (‘−’ no disease (1)); also recorded: + (‘+’ mild (2))
  C: Glomerular Necrosis: − (‘−’ no disease (1)); also recorded: + (‘+’ mild (2)); also recorded: ++ (‘++’ moderate (3))
  D: Glomerular Sclerosis: − (‘−’ no disease (1)); also recorded: ++ (‘++’ moderate (3))
  E: Interstitial Infiltration: − (‘−’ no disease (1)); also recorded: + (‘+’ mild (2))
  F: Tubular Atrophy: − (‘−’ no disease (1)); also recorded: + (‘+’ mild (2))
  G: Interstitial Fibrosis: − (‘−’ no disease (1)); also recorded: + (‘+’ mild (2))
  H: Vasculitis: − (‘−’ no disease (1)); also recorded: + (‘+’ mild (2))
NZM mice [2]; COMPOUND A 55 mg/kg
  Glomerular Cellularity: 1.33
  Glomerular Necrosis: 1.22
  Glomerulosclerosis: 1.00
  Interstitial Fibrosis: 1.0
  Interstitial Infiltration: 1.11
  Tubular Atrophy: 1.22
  Vasculitis: 1.11
NZM mice [2]; COMPOUND A 100 mg/kg
  Glomerular Cellularity: 1.44
  Glomerular Necrosis: 1.44
  Glomerulosclerosis: 1.22
  Interstitial Fibrosis: 1.22
  Interstitial Infiltration: 1.22
  Tubular Atrophy: 1.33
  Vasculitis: 1.44
NZM mice [2]; NZM mice treated with COMPOUND A, FIG. 19
  enlarged glomeruli and leukocytic infiltrates in renal sections: absent
NZM mice [2]; NZM mice, COMPOUND A 55 mg/kg
  glomerular cellularity decrease compared to vehicle: 59.3%
NZM mice [2]; NZM mice, COMPOUND A 100 mg/kg
  glomerular cellularity decrease compared to vehicle: 56.2%
NZM mice [2]; NZM mice, comparable to non-diseased NZW/LacJ age-matched control, FIG. 19
  renal pathologies: decreased renal pathologies
NZM mice [2]; [3]
  interstitial fibrosis decrease compared to vehicle: 58.3%
  vasculitis decrease compared to vehicle: 8.3%
